Data: ChEMBL document CHEMBL3232851 (Bioorg Med Chem, 2014)

Columns and labels:
[1] = Membrane permeabilizing activity of the compound in calcein-loaded egg phosphatidylcholine liposomes assessed as release of calcein from liposomes at pH 6.8 after 10 mins by fluorescence assay; type: ADME, Microsome
[2] = target: T1, Prostaglandin G/H synthase 2 (Homo sapiens, UniProt P35354); assay: Inhibition of human recombinant COX-2 by enzyme immunoassay
T1 sequence (P35354 whole entry): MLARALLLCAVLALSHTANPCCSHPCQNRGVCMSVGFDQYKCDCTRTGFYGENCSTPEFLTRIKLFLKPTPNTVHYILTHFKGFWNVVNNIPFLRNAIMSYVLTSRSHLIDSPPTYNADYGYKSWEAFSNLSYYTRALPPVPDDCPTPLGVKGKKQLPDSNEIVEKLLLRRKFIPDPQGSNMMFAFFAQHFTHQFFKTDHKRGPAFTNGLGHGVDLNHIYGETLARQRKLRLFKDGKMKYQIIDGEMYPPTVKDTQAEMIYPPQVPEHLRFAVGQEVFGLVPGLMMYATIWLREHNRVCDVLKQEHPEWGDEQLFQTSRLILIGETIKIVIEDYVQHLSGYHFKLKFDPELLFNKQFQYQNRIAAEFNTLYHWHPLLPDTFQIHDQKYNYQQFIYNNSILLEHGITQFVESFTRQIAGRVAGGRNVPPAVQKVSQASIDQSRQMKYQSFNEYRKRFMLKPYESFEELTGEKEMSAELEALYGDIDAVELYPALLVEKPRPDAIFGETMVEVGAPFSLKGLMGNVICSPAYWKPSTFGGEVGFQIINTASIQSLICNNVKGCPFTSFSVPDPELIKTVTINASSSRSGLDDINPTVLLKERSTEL

[3] = target: T2, Prostaglandin G/H synthase 1 (Ovis aries, UniProt P05979); assay: Inhibition of purified ovine COX-1 by enzyme immunoassay
T2 sequence (P05979 whole entry): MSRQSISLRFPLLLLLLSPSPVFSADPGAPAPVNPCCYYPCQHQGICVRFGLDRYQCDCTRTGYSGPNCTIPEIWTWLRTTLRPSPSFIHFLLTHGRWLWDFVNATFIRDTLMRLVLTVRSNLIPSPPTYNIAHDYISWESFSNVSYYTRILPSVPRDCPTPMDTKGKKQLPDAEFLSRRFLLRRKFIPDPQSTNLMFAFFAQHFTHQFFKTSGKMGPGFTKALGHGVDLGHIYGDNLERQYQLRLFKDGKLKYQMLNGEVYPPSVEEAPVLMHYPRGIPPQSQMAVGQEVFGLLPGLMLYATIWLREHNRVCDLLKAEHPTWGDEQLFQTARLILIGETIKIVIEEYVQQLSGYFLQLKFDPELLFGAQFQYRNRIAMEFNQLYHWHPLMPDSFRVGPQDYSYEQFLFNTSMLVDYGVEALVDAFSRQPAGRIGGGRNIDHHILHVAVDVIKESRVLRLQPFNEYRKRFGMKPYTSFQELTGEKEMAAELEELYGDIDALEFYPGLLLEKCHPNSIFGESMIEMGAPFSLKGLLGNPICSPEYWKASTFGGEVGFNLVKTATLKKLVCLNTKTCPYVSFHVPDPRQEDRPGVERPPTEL

COX-2 = assay: Ratio of EC50 for membrane permeabilization to IC50 for human recombinant COX-2

| EC50 [1] [µM] | IC50 [2] [µM] | IC50 [3] [µM] | calcein release EC50/COX-2 IC50 ratio (COX-2) | Compound |
| --- | --- | --- | --- | --- |
| 480 | – | – | – | NS(=O)(=O)c1ccc(C2=C(c3ccccc3)C(=O)OC2)cc1 |
| 1440 | 0.13 | > 500 | 11.1 | Cc1ccc(-c2cc(C(F)(F)F)nn2-c2ccc(S(C)(=O)=O)cc2)cc1 |
| 1300 | 6.84 | > 500 | 0.19 | CS(=O)(=O)c1ccc(-n2nc(C(F)(F)F)cc2-c2ccccc2)cc1 |
| 6230 | 0.3 | > 500 | 20.8 | Cc1ccc(C2=C(c3ccc(S(C)(=O)=O)cc3)COC2=O)cc1 |
| 24 | 0.11 | 385 | 0.22 | Cc1ccc(C2=C(c3ccc(S(N)(=O)=O)cc3)COC2=O)cc1 |
| 50 | – | – | – | Cc1ccc(-c2cc(C(F)(F)F)nn2-c2ccc(S(N)(=O)=O)cc2)cc1 [CELECOXIB] |
| 12600 | – | – | – | CS(=O)(=O)c1ccc(C2=C(c3ccccc3)C(=O)OC2)cc1 [ROFECOXIB] |
